{"source": "patent US7427663B2", "about": "“Cardio myopeptidin, the production and the use thereof” (Dalian Zhen-Ao Pharmaceutical Co., Ltd., priority 2003, dated 2008)", "key": {"[1]": {"system": "isolated rat heart with myocardial ischemia-reperfusion", "test": "Langendorff isolated rat heart, CPK and LDH of coronary effluent", "conditions": "1 μg/ml", "method": "(2) Refer to literature methods to make Langendorff's cardiac hypoxia-reoxygenation damage animal model of isolated rat heart. Conduct Langendorff's perfusion with K—H liquid with high Ca2+ and low K+ and persistent filling of mixed gas. Hook two platinum filaments on the apex of heart and the root of the left cardiac atrium respectively, and record the electrocardiogram. Ligate LAD for 10 min and loosen for 15 min. Conduct perfusion with K—H liquid with corresponding concentrations of cardio myopeptidin from 5 min before ligation to 5 min after loosening for the cardio myopeptidin-treated group. Determine the related indexes of effluent before and after 8 min of ligation and 2 min after loosening respectively. […]"}, "[2]": {"system": "myocardial infarction in pigs", "test": "Myocardial infarction in miniature pigs (coronary ligation)", "type": "in vivo", "conditions": "pig, phleboclysis 0.25 mg/kg", "method": "Anesthetize a healthy, grown male miniature pig with the body weight of 20.9±4.0 kg with 30 mg/kg of 3% sodium pentobarbital through auditory intravenous injection. Connect the tracheal cannula to a SC-3 electro-respirator to perform artificial positive pressure respiration. Open the thoracic cavity from the third rib at the left side to expose the heart. Separate the anterior descending branch of the coronary artery (about ⅓ distant from the apex of heart), and put a silk thread 0^□ beneath it for ligation. Place a multi-point fixed type epicardium electrode with 20 points on the myocardial surface under the ligature. Record the myocardial electrical signals on an RTA-1200 model hot-wave recorder of a RM-6300 model eight-lead polygraph through a ZYS1-I model numerical control epicardium scanner and AB-601G bioelectric amplifier, and 1 mV standard voltage is equal to 1 mm. Under the control of the automatic timer, measure the change in the electrocardiogram at those 20 points. Intubate a cannula from the femoral artery to the abdominal aorta, and connect it to a AP-641G blood pressure amplifier through a TP-400T model pressotransduer to measure the mean blood pressure (MBP). […]"}, "[3]": {"system": "myocardial ischemia-reperfusion in rats", "test": "Cardiac muscle and plasma CPK, LDH, MDA of rats with ischemia-reperfusion, prophylactic administration", "type": "in vivo", "conditions": "rat I-R", "method": "(1) Refer to literature methods to make myocardial ischemia-reperfusion damage animal model. Ligate the left anterior descending branch of the coronary artery of rats for 10 minutes after MTP or verapamil (Ver) is sublingually administered through intravenous injection for 5 min, perfuse for 30 min. Continuously observe II-lead ECG through a polygraph. Take 2 ml left heart blood after the completion of reperfusion, and take the cardiac muscle at the cardiac apex of the left ventricle after the heart is perfused through the aorta. […] Grouping of the experiment: In the experiment, the rats are divided into seven groups: pseudo-operation control group (P); ischemia-reperfusion group (ischemia-reperfusion, I-R); ischemia-reperfusion+normal saline group (I-R+N.S); ischemia-reperfusion +0.5, 2.0 or 10.0 mg/Kg cardio myopeptidin groups (I-R+MTP) and ischemia-reperfusion +1.0 mg/Kg verapamil group (I-R+Ver), 8-10 animals in each group."}, "[4]": {"system": "myocardial oxygen metabolism in dogs", "test": "Myocardial oxygen consumption and oxygen uptake in anesthetized dogs", "type": "in vivo", "conditions": "dog, i.v. 2 mg/kg", "from_the_text": "Anesthetize dogs with sodium pentobarbital. Conduct endotracheal intubation and artificial respiration, and use an RM-86 polygraph to monitor electrocardiogram and aortic pressure. Open the thoracic cavity from the left side to expose the heart. Intubate a cannula from the apex of the heart to the left ventricle, and record the pressure of the left ventricle and pressure change rate (±dp/dt max). In order to know the change in circulation of the coronary artery and myocardial oxygen metabolism, separate the left circumflex branch of the coronary artery of dogs, use an electromagnetic flowmeter to measure the flow of coronary artery, and calculate the resistance against the coronary artery. Intubate a cannula from the external jugular vein of dogs to the […]. Simultaneously draw the arterial blood and the coronary sinus blood. Use a blood gas analyzer (Model ABL-3, Denmark) to determine blood oxygen content, and calculate myocardial oxygen uptake and myocardial oxygen consumption. Keep the arterial blood pH, CO2 and partial pressure of oxygen of dogs within normal range. The dose of MTP is 2.5 and 10 mg/kg, and the interval between two doses is 30 min. Continuously record various parameters after administration until they return to the control value. Take arterial blood and coronary sinus blood at 2, 5, 10 and 30 minutes after administration. Determine blood gas content, calculate myocardial oxygen uptake and myocardial oxygen consumption, and observe the effect of MTP on myocardial oxygen metabolism."}, "[5]": {"system": "cardiac muscle of ischemia-reperfusion in rats", "test": "Damage of myocardial ultrastructure caused by ischemia-reperfusion, electron microscope semi-quantitative assay", "type": "in vivo", "conditions": "rat, 2.0 mg/Kg i.v.", "method": "(§1) By reference to literature methods, sublingually administer cardio myopeptidin or the reference drug through intravenous injection after rat's coronary artery LAD is ligated for 5 minutes; loosen the ligature after 10 minutes of myocardial ischemia, and reperfusion for 30 min, and simultaneously record II-lead ECG. Blood is taken from the abdominal aorta after the completion of reperfusion, and the heart is perfused and fixed with 6% glutaraldehyde and 0.1 M sodium cacodylate buffer for 2 hours after it is perfused and cleaned with physiological saline water through the aorta. Then the ischemic cardiac muscle from the left frontal wall is picked and cut into 1 mm^3 slices. The slices are immersed in 4% glutaraldehyde and 0.1 M sodium cacodylate buffer to be fixed for the preparation of electron microscope specimens. Slice the specimen of each cardiac muscle after fixation with osmic acid, serial dehydration with acetone, embedment and polymerization with epoxy resin 618, and for each cardiac muscle, cut 4 embedded pieces. Randomly take 20 photos for each group of cardiac muscle of animals with the negative magnification equal to 12000. Observe the change in the ultrastructure, and classify and determine the value according to categories of pathologic changes and severity of damage of mitochondrion, myocardial fiber and other components. […]"}, "[6]": {"system": "myocardial ischemia-reperfusion in rats", "test": "Plasma FFA content of rats with ischemia-reperfusion", "type": "in vivo", "conditions": "rat I-R, 2.0 mg/kg", "method": "as §1"}, "[7]": {"system": "myocardial ischemia in cats", "test": "Epicardium electrocardiogram of cats with persistent myocardial ischemia, therapeutic administration", "type": "in vivo", "conditions": "cat, 2.0 mg/Kg i.v."}, "[8]": {"system": "succinic dehydrogenase of primarily cultured myocardial cells", "test": "Influence of each peak of cardio myopeptidin on enzyme activity of myocardial cells (MTT method)", "type": "cell-based", "conditions": "Adriamycin damage group; normal control 0.344", "from_the_text": "Polypeptide content in cardio myopeptidin is 75-90[…], free amino acids content is 6-15[…], and there is a little nucleic acid and microelement."}, "myocardial cells": {"system": "myocardial cells", "test": "Influence of pH and time on activity of cardio myopeptidin (MTT method)", "type": "cell-based", "conditions": "Adriamycin damage group, without cardio myopeptidin; normal control 0.691"}}, "data": [{"compound": "COc1ccc(CCN(C)CCCC(C#N)(c2ccc(OC)c(OC)c2)C(C)C)cc1OC", "note": "(stereo not drawn) [verapamil]", "values": [{"measurement": "Coronary effluent CPK", "setting": "[1]; during ischemia", "result": "16.2 ± 2.8", "unit": "U/L"}, {"measurement": "Coronary effluent LDH", "setting": "[1]; during ischemia", "result": "13.0 ± 0.62", "unit": "U/L"}, {"measurement": "Coronary effluent CPK", "setting": "[1]; perfusion", "result": "16.0 ± 1.8", "unit": "U/L"}, {"measurement": "Coronary effluent LDH", "setting": "[1]; perfusion", "result": "14.3 ± 0.95", "unit": "U/L"}, {"measurement": "Coronary effluent CPK", "setting": "[1]; prior ischemia", "result": "16.3 ± 2.0", "unit": "U/L"}, {"measurement": "Coronary effluent LDH", "setting": "[1]; prior ischemia", "result": "11.4 ± 0.78", "unit": "U/L"}, {"measurement": "Infarction range", "setting": "[2]", "result": "12.5 ± 3.4", "unit": "%"}, {"measurement": "Cardiac muscle LDH", "setting": "[3]; 1.0 mg/Kg", "result": "75.1 ± 23", "unit": "u/mg pro"}, {"measurement": "Cardiac muscle MDA", "setting": "[3]; 1.0 mg/Kg", "result": "66.6 ± 19.8", "unit": "nmol/100 mg pro"}, {"measurement": "Plasma LDH", "setting": "[3]; 1.0 mg/Kg", "result": "46.7 ± 8.8", "unit": "u/ml"}, {"measurement": "Plasma MDA", "setting": "[3]; 1.0 mg/Kg", "result": "24.9 ± 6.6", "unit": "nmol/mL"}, {"measurement": "Cardiac muscle CPK", "setting": "[3]; 1.0 mg/kg", "result": "886 ± 115", "unit": "u/100 mg pro"}, {"measurement": "Plasma CPK", "setting": "[3]; 1.0 mg/kg", "result": "192 ± 60", "unit": "u/100 ml"}]}, {"compound": "CC(C)NCC(O)COc1cccc2ccccc12", "note": "(stereo not drawn) [propranolol]", "values": [{"measurement": "myocardial oxygen consumption (MVO2), change value after administration", "setting": "[4]; 2 min", "result": "−31.0 ± 13", "unit": "%"}, {"measurement": "myocardial oxygen uptake (O2 ext), change value after administration", "setting": "[4]; 2 min", "result": "−3.00 ± 1.0", "unit": "%"}, {"measurement": "myocardial oxygen consumption (MVO2), change value after administration", "setting": "[4]; 5 min", "result": "−30.0 ± 13", "unit": "%"}, {"measurement": "myocardial oxygen uptake (O2 ext), change value after administration", "setting": "[4]; 5 min", "result": "3.00 ± 7.0", "unit": "%"}, {"measurement": "myocardial oxygen consumption (MVO2), change value after administration", "setting": "[4]; 10 min", "result": "−33.0 ± 10", "unit": "%"}, {"measurement": "myocardial oxygen uptake (O2 ext), change value after administration", "setting": "[4]; 10 min", "result": "3.00 ± 8.0", "unit": "%"}, {"measurement": "myocardial oxygen consumption (MVO2), change value after administration", "setting": "[4]; 30 min", "result": "−32.0 ± 14", "unit": "%"}, {"measurement": "myocardial oxygen uptake (O2 ext), change value after administration", "setting": "[4]; 30 min", "result": "3.00 ± 9.0", "unit": "%"}, {"measurement": "Value of pathological changes ± SD", "setting": "[5]", "result": "0.71 ± 0.84"}, {"measurement": "FFA (plasma)", "setting": "[6]", "result": "77.1 ± 6.4", "unit": "μmol/100 ml"}, {"measurement": "ΣNST", "setting": "[7]; ischemia group 11.1", "result": "6.17 ± 1.5", "unit": "Num."}, {"measurement": "ΣΔST", "setting": "[7]; ischemia group 40.5", "result": "22.8 ± 6.4", "unit": "mV"}]}, {"compound": "COc1cccc2c1C(=O)c1c(O)c3c(c(O)c1C2=O)C[C@@](O)(C(=O)CO)C[C@@H]3O[C@H]1C[C@H](N)[C@H](O)[C@H](C)O1", "note": "[Adriamycin]", "values": [{"measurement": "OD value (MTT method)", "setting": "[8]", "result": "0.272 ± 0.015"}, {"measurement": "OD value (MTT method)", "setting": "myocardial cells", "result": "0.274 ± 0.011"}]}]}
